System: MazF-mt3
Type: biochemical, Mycobacterium tuberculosis
Conditions: FAM-labeled 13-nt RNA substrate, 37 °C, 30 min

| Molecule | reduction of the cleavage of the WT MazF-mt3 enzyme (Figure 4A) [%] | suppression of the cleavage activity of MazF-mt3 (20 mM Tris-HCl pH 8.0, 150 mM NaCl, urea-PAGE, Figure S8) |
| --- | --- | --- |
| MazE-mt3 α3–α4: peptide corresponding to the last two helices (α3-α4, Leu46-Trp82) of MazE-mt3; cocrystallized with MazF-mt3 (PDB 8ZWS) (LTGQIDRALESIHGTDEAEALAVANAYRVLETMDDEW) | 15 | – |
| MazE-mt3: full-length antitoxin of the M. tb MazEF-mt3 toxin–antitoxin pair, recombinantly expressed (protein, left off: His tag, end not stated, state not stated, full-length antitoxin of the M. tb MazEF-mt3 toxin–antitoxin pair, recombinantly expressed) MKTAISLPDETFDRVSRRASELGMSRSEFFTKAAQRYLHELDAQLLTGQIDRALESIHGTDEAEALAVANAYRVLETMDDEW | – | fully suppress |
